Assay results published in PMC3629565, “Sphingolipid synthesis and scavenging in the intracellular apicomplexan parasite, Toxoplasma gondii” (Molecular and Biochemical Parasitology, 2013).

Molecular target: T1, TgSLS (Toxoplasma gondii, UniProt A0A2U9EWT7)
T1 construct: parasites elsewhere RH, locus tag of ME49), pRS426MET25 in S. cerevisiae YPH499-HIS-GAL-AUR1, CHAPS-washed microsomes; no tag mentioned
T1 sequence (A0A2U9EWT7 1-427): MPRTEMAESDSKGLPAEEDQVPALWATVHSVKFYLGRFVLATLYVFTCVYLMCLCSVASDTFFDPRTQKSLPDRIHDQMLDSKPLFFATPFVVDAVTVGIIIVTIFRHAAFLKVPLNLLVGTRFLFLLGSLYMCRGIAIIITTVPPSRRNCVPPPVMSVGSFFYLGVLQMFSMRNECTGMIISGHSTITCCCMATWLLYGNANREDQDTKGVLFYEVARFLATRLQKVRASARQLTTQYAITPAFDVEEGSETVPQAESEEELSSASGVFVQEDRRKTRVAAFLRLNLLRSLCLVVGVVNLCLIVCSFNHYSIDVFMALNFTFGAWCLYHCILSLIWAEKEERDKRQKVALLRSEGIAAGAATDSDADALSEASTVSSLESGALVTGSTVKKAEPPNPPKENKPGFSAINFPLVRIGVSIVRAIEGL
Test: IPC formation by CHAPS-washed yeast microsomes, HPTLC fluorescence
Assay type: biochemical
Details: acceptor substrate at 5 μM; donor 1 mM bovine liver phosphatidylinositol; 10 mM EDTA, 6 mg/ml BSA, 30 °C, 60 min; labelled compound

For `CCCCCCCCCCCCC/C=C/[C@@H](O)[C@H](CO)NC(=O)CCCCCNc1ccc([N+](=O)[O-])c2nonc12` [NBD C6-ceramide], the “IPC formation by CHAPS-washed yeast microsomes, HPTLC fluorescence” value was “reaction of CHAPS-washed TgSLS extract with acceptor substrate NBD-C6-ceramide”.
